Numbers after ± are expanded uncertainties.
Tests used:
[1] = molar heat capacity at constant pressure; details: 298.15 K; 101.33 kPa; Crystal; Small sample (50 mg) DSC
[2] = Crystal; DTA
[3] = Molar enthalpy of transition or fusion; details: Crystal; DSC

molar heat capacity at constant pressure [1] [J/K/mol] | Normal melting temperature [2] [°C] | Molar enthalpy of transition or fusion [3] [kcal/mol] | Compound
173.93 ± 21 | 153.46 ± 0.39 | 5.6 ± 0.129 | Nc1ccccc1S(N)(=O)=O [2-aminobenzenesulfonamide]
199.76 ± 10 | 164.53 ± 0.39 | 5.33 ± 0.122 | Nc1ccc(S(N)(=O)=O)cc1 [4-aminobenzenesulfonamide]
172.91 ± 9.4 | 152.32 ± 0.39 | 5.67 ± 0.131 | NS(=O)(=O)c1ccccc1 [benzenesulfonamide]
193.48 ± 21 |  | 6.75 ± 0.179 | Cc1ccccc1S(N)(=O)=O [o-toluenesulfonamide]
205.46 ± 14 | 137.27 ± 0.39 | 5.72 ± 0.174 | Cc1ccc(S(N)(=O)=O)cc1 [p-toluenesulfonamide]
